From patent US10730850B2, “Pyridinylmethyl carbamimidoylcarbamate derivatives and their use as AOC3 inhibitors” (Boehringer Ingelheim International GmbH, priority 2016, dated 2020)

molecular target: AOC3 (Homo sapiens (Human), UniProt Q16853); assay: MAO-Glo AOC3 assay (recombinant CHO cells overexpressing AOC3); type: biochemical; details: Table 1, read-out: AOC3 IC50
Source text: The MAO-Glo™ Assay (commercial available from PROMEGA, # V1402) provides a sensitive method for the measurement of monoamine oxidase (MAO) activity (Valley, M. P. et al., 2006, Anal. Biochem. 359: 238-246) from a variety of tissues, biofluids or recombinant expressed or purified enzymes. As substrate a derivate of the beetle luciferin ((4S)-4,5-dihydro-2-(6-hydroxybenzothiazolyl)-4-thiazole-carboxylic acid) is used, which is oxidized at a primary amine moiety. After a spontaneous elimination and a catalyzed esterase reaction, the turnover of the luciferine by the luciferase is recorded as a signal of AOC3 activity.
An aliquot of 3 μL of the compound dilution is added to a 384 well plate (Optiplate, PS, flat bottom, white, PERKIN ELMER, #6007290) with a final DMSO concentration of 6.6%. Recombinant CHO cells, overexpressing the human (1500 cells/well), mouse (1000 cells/well) or rat (500 cells/well) AOC3 enzyme are diluted in reaction buffer and added in a volume of 15 μL to the wells. After incubation for 20 minutes at 37° C., 2 μL of MAO substrate (dissolved in DMSO at 16 mM, adjusted to assay concentration in reaction buffer to a final assay concentration of 20 μM) is added and further incubated for 60 minutes at 37° C. The turnover of the substrate is determined by the addition of 20 μL of the detection-mix which was generated by the addition of reconstitution buffer with esterase (PROMEGA, # V1402) to the luciferine detection reagent (PROMEGA, # V1402). After an incubation period of 20 minutes, the luminescent signal is measured with Envision 2104 Multilabel Reader (PERKIN ELMER).
In the following table the activity expressed as IC50 (nM) of compounds according to the invention is presented wherein the IC50 values are determined in the MAO-Glo™ AOC3 assay as described hereinbefore. The term “Example” refers to the example numbers according to the following experimental section.

Chain of AOC3 (Q16853 whole entry): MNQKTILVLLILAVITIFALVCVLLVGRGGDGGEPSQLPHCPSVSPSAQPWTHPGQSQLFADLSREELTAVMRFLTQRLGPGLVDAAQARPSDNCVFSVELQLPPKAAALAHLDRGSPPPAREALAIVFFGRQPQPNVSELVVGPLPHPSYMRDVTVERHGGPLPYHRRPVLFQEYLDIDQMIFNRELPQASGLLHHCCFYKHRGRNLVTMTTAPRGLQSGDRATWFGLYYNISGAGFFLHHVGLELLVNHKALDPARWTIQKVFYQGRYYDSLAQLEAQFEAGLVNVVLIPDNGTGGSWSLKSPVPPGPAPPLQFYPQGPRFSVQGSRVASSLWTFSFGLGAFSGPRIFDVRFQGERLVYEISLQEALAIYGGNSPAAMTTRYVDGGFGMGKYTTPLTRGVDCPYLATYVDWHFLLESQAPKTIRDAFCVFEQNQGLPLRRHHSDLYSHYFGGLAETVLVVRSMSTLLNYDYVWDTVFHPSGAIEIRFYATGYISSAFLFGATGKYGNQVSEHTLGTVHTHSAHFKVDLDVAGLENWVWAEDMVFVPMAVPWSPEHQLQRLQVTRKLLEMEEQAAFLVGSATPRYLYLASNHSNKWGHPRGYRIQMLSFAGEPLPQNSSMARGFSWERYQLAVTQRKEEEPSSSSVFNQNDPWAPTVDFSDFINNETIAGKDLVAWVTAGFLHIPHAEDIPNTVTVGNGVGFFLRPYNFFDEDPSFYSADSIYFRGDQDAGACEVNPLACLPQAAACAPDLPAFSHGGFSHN

Going from `N=C(N)NC(=O)OCc1ccnc(N2CC(c3ccccc3)C2)c1F` [Example 1.001] to `N=C(N)NC(=O)OCc1ccnc(N2CCC(c3ccccc3)CC2)c1F` [Example 1.008], the IC50 falls from 98 nM to 15 nM (6.5-fold). The second is the more potent here.

Compared with `N=C(N)NC(=O)OCc1ccnc(N2CC(c3ccccn3)C2)c1F` [Example 1.002], `N=C(N)NC(=O)OCc1ccnc(N2CC=C(c3ccccn3)CC2)c1F` [Example 1.006] is 9.6-fold lower in IC50: 172 nM for the first, 18 nM for the second. The second is the more potent here.

`N#Cc1ccc(C2CN(c3cccc(COC(=O)NC(=N)N)n3)C2)cc1` [Example 1.003] and `N=C(N)NC(=O)OCc1ccnc(N2CC(c3ccc(OCC4CC4)cc3)C2)c1F` [Example 1.081] are within 1.5-fold of each other in IC50: 16 nM for the first, 22 nM for the second.

First: N=C(N)NC(=O)OCc1ccnc(N2CC=C(c3ncco3)CC2)c1F [Example 1.004]
Second: Cc1cnc(C2=CCN(c3nccc(COC(=O)NC(=N)N)c3F)CC2)o1 [Example 1.015]
The IC50 of the first is 2.2-fold higher: 38 nM for the first, 17 nM for the second. The second is the more potent here.

`N=C(N)NC(=O)OCc1ccnc(N2CC=C(c3ccccc3)CC2)c1F` [Example 1.005] and `N=C(N)NC(=O)OCc1ccnc(N2CC=C(c3ccc(Cl)cc3)CC2)c1F` [Example 1.069] are within 1.5-fold of each other in IC50: 17 nM for the first, 15 nM for the second.

Going from `N=C(N)NC(=O)OCc1ccnc(N2CC=C(c3ncccn3)CC2)c1F` [Example 1.007] to `Cc1cnc(C2=CCN(c3nccc(COC(=O)NC(=N)N)c3F)CC2)nc1` [Example 1.030], the IC50 falls from 96 nM to 23 nM (4.2-fold).

`N=C(N)NC(=O)OCc1ccnc(N2CCN(c3ccccc3)CC2)c1F` [Example 1.009] and `Cc1ccccc1N1CCN(c2nccc(COC(=O)NC(=N)N)c2F)CC1` [Example 1.034] are within 1.5-fold of each other in IC50: 41 nM for the first, 58 nM for the second.

First: N=C(N)NC(=O)OCc1ccnc(N2CCN(c3ccccn3)CC2)c1F [Example 1.012]
Second: N=C(N)NC(=O)OCc1ccnc(N2CCN(c3cccnn3)CC2)c1F [Example 1.013]
The IC50 of the first is 2.8-fold higher: 62 nM for the first, 22 nM for the second.

Going from `N=C(N)NC(=O)OCc1ccnc(N2CCN(c3ncccn3)CC2)c1F` [Example 1.014] to `N=C(N)NC(=O)OCc1ccnc(N2CCN(c3ncncn3)CC2)c1F` [Example 1.018], the IC50 falls from 41 nM to 17 nM (2.4-fold).

Compared with `Cc1cnc(C2CCN(c3nccc(COC(=O)NC(=N)N)c3F)CC2)o1` [Example 1.019], `N=C(N)NC(=O)OCc1ccnc(N2CCC(c3nccs3)CC2)c1F` [Example 1.022] is 1.7-fold lower in IC50: 84 nM for the first, 49 nM for the second. The second is the more potent here.

Compared with `N=C(N)NC(=O)OCc1ccnc(N2CCC(C3CCCCC3)CC2)c1F` [Example 1.020], `N=C(N)NC(=O)OCc1ccnc(N2CCC(N3CCCCC3=O)CC2)c1F` [Example 1.046] is 3.7-fold higher in IC50: 35 nM for the first, 128 nM for the second.

First: N=C(N)NC(=O)OCc1ccnc(N2CCN(C3CCCC3)C(=O)C2)c1F [Example 1.021]
Second: N=C(N)NC(=O)OCc1ccnc(N2CCC(N3CCOC3=O)CC2)c1F [Example 1.026]
The IC50 of the first is 4.3-fold lower: 26 nM for the first, 111 nM for the second. The first is the more potent here.

`N=C(N)NC(=O)OCc1ccnc(N2CCN(c3nccs3)CC2)c1F` [Example 1.024] and `Cc1ccc(N2CCN(c3nccc(COC(=O)NC(=N)N)c3F)CC2)nc1` [Example 1.038] are within 1.5-fold of each other in IC50: 18 nM for the first, 14 nM for the second.

`N=C(N)NC(=O)OCc1ccnc(N2CCC(N3CCOCC3)CC2)c1F` [Example 1.025] and `N=C(N)NC(=O)OCc1ccnc(N2CCC(N3CC[S+]([O-])CC3)CC2)c1F` [Example 1.080] are within 1.5-fold of each other in IC50: 92 nM for the first, 86 nM for the second.

`Cc1cccc(C2CCN(c3nccc(COC(=O)NC(=N)N)c3F)CC2)c1` [Example 1.028] and `N=C(N)NC(=O)OCc1ccnc(N2CCC(c3cccc(Cl)c3)CC2)c1F` [Example 1.075] are within 1.5-fold of each other in IC50: 10 nM for the first, 14 nM for the second.

Going from `Cc1ccc(C2CCN(c3nccc(COC(=O)NC(=N)N)c3F)CC2)cc1` [Example 1.029] to `N=C(N)NC(=O)OCc1ccnc(N2CCC(c3ccc(C(=O)O)cc3)CC2)c1F` [Example 1.082], the IC50 falls from 9 nM to 2 nM (4.5-fold).

`Cc1ccc(N2CCN(c3nccc(COC(=O)NC(=N)N)c3F)CC2)cc1` [Example 1.032] and `CCc1ccc(N2CCN(c3nccc(COC(=O)NC(=N)N)c3F)CC2)cc1` [Example 1.062] are the same in IC50: 11 nM for the first, 11 nM for the second.

`CC1CN(c2nccc(COC(=O)NC(=N)N)c2F)CCN1c1ccccc1` (stereo not shown) [Example 1.035] and `N=C(N)NC(=O)OCc1ccnc(N2CCN(c3ccccc3F)CC2)c1F` [Example 1.043] are within 1.5-fold of each other in IC50: 14 nM for the first, 13 nM for the second.

`N=C(N)NC(=O)OCc1ccnc(N2CC=C(c3ncc(F)cn3)CC2)c1F` [Example 1.042] and `N=C(N)NC(=O)OCc1ccnc(N2CCN(c3ncc(F)cn3)CC2)c1F` [Example 1.045] are within 1.5-fold of each other in IC50: 28 nM for the first, 24 nM for the second.

First: N=C(N)NC(=O)OCc1ccnc(N2CCC3(C=Cc4ccccc43)CC2)c1F [Example 1.049]
Second: N=C(N)NC(=O)OCc1ccnc(N2CCC3(CCc4ccccc43)CC2)c1F [Example 1.053]
The IC50 of the first is 3.8-fold lower: 22 nM for the first, 83 nM for the second. The first is the more potent here.

Going from `N=C(N)NC(=O)OCc1ccnc(N2C3CCC2CC(c2ccccc2)C3)c1F` (stereo not shown) [Example 1.052] to `N=C(N)NC(=O)OCc1ccnc(N2CCN(c3ccccc3Cl)CC2)c1F` [Example 1.076], the IC50 falls from 84 nM to 39 nM (2.2-fold).

Going from `N#Cc1ccc(N2CCN(c3nccc(COC(=O)NC(=N)N)c3F)CC2)cn1` [Example 1.057] to `N#Cc1cnc(N2CCN(c3nccc(COC(=O)NC(=N)N)c3F)CC2)nc1` [Example 1.059], the IC50 rises from 3 nM to 16 nM (5.3-fold). The first is the more potent here.

Going from `Cc1cccc(C)c1N1CCN(c2nccc(COC(=O)NC(=N)N)c2F)CC1` [Example 1.060] to `Cc1ccc(N2CCN(c3nccc(COC(=O)NC(=N)N)c3F)CC2)cc1C` [Example 1.063], the IC50 falls from 217 nM to 13 nM (17-fold).

First: N=C(N)NC(=O)OCc1ccnc(N2CC3CC2CN3c2cccc(F)c2)c1F (stereo not shown) [Example 1.066]
Second: N=C(N)NC(=O)OCc1ccnc(N2CCC(c3ccc(C(F)(F)F)cc3)CC2)c1F [Example 1.096]
The IC50 of the first is 23-fold higher: 278 nM for the first, 12 nM for the second.

Going from `N#CC1CCN(C2CCN(c3nccc(COC(=O)NC(=N)N)c3F)CC2)CC1` [Example 1.070] to `N=C(N)NC(=O)OCc1ccnc(N2CCC(N3CCC(C(N)=O)CC3)CC2)c1F` [Example 1.088], the IC50 falls from 77 nM to 48 nM (1.6-fold).

`COc1cnc(C2CCN(c3nccc(COC(=O)NC(=N)N)c3F)CC2)nc1` [Example 1.071] and `N=C(N)NC(=O)OCc1ccnc(N2CCC(c3ncc(Cl)cn3)CC2)c1F` [Example 1.079] are within 1.5-fold of each other in IC50: 8 nM for the first, 11 nM for the second.

Compared with `COc1cnc(N2CCN(c3nccc(COC(=O)NC(=N)N)c3F)CC2)nc1` [Example 1.073], `COC(=O)c1cnc(N2CCN(c3nccc(COC(=O)NC(=N)N)c3F)CC2)nc1` [Example 1.093] is 1.7-fold higher in IC50: 10 nM for the first, 17 nM for the second. The first is the more potent here.

`CCOc1ccc(C2CCN(c3nccc(COC(=O)NC(=N)N)c3F)CC2)cn1` [Example 1.087] and `CN(C)Cc1ccc(C2CCN(c3nccc(COC(=O)NC(=N)N)c3F)CC2)cc1` [Example 1.090] are within 1.5-fold of each other in IC50: 12 nM for the first, 10 nM for the second.

`COC(=O)c1ccc(N2CCN(c3nccc(COC(=O)NC(=N)N)c3F)CC2)nn1` [Example 1.094] and `N=C(N)NC(=O)OCc1ccnc(N2CCN(c3ccc(C(F)(F)F)cc3)CC2)c1F` [Example 1.097] are within 1.5-fold of each other in IC50: 14 nM for the first, 11 nM for the second.

Compared with `N=C(N)NC(=O)OCc1ccnc(N2CCN(c3ncc(C(F)(F)F)cn3)CC2)c1F` [Example 1.098], `N#Cc1ccc(N2CCN(c3nccc(COC(=O)NC(=N)N)c3F)CC2)c(C(F)(F)F)c1` [Example 1.105] is 2.1-fold higher in IC50: 15 nM for the first, 31 nM for the second.

`CC(C)(C)OC(=O)N1CC(C2CCN(c3nccc(COC(=O)NC(=N)N)c3F)CC2)C1` [Example 1.102] showed an IC50 of 65 nM.
